Values quoted from earlier work as cited in patent US20180360817A1, “EXTENDED RELEASE OSMOTIC DOSAGE FORM COMPRISING HIGH METHYLPHENIDATE HYDROCHLORIDE LOAD” (CADILA HEALTHCARE LIMITED, priority 2015, published 2018).
Read-outs that look alike come from different tables or passages of the source.

For `COC(=O)C(c1ccccc1)C1CCCCN1.Cl` (racemic) [Methylphenidate hydrochloride, d,l (racemic) methyl α-phenyl-2-piperidineacetate hydrochloride], the Solubility (in acetone) is given as “slightly soluble”, the Solubility (in alcohol) is given as “soluble” and the Solubility (in chloroform) is given as “slightly soluble”. For the same compound, the Solubility (in methanol) was “freely soluble” and the Solubility (in water) was “freely soluble”.
